In patent publication US9206167B2, “Piperazine-substituted benzothiophenes for treatment of mental disorders” (Otsuka Pharmaceutical Co., Ltd., priority 2005, dated 2015):
Where a name gives a salt, the structure may show the parent alone.

How the values were obtained:
Dopamine D2 receptor = Dopamine D2 receptor (Rattus norvegicus (Rat), UniProt P61169); assay: Dopamine D2 receptor binding assay ([3H]-raclopride, rat corpus striatum membrane); conditions: Ki from IC50 by Cheng-Prussoff formula
Description: Pharmacological Test 1 1) Dopamine D2 Receptor Binding Assay
Wistar male rats were decapitated, the brain was retrieved immediately and corpus striatum was taken out. It was homogenized in 50 mM tris(hydroxymethyl)aminomethane (Tris)-hydrochloric acid buffer (pH 7.4) of a volume 50 times of the weight of the tissue using a homogenizer with a high-speed rotating blade, and centrifuged at 4° C., 48,000×g for 10 minutes. The obtained precipitate was suspended again in the above-described buffer of a volume 50 times of the weight of the tissue and after incubated at 37° C. for 10 minutes, centrifuged in the above-described condition. The obtained precipitate was suspended in 50 mM (Tris)-hydrochloric acid buffer (containing 120 mM NaCl, 5 mM KCl, 2 mM CaCl2, 1 mM MgCl2, pH 7.4) of a volume 25 times of the weight of the tissue and preserved by freezing at −85° C. till it was used for binding assay as a membrane specimen.
The binding assay was performed using 40 μl of the membrane specimen, 20 μl of [^3H]-raclopride (final concentration 1 to 2 nM), 20 μl of a test drug and 50 mM Tris-hydrochloric acid buffer (containing 120 mM NaCl, 5 mM KCl, 2 mM CaCl2, 1 mM MgCl2, pH 7.4) so that the total amount was 200 μl (final dimethylsulfoxide concentration 1%). The reaction was performed at room temperature for 1 hour and terminated by conducting suction filtration with a cell harvester on a glass fiber filter plate. The filter plate made of glass fiber was washed with 50 mM Tris-hydrochloric acid buffer (pH 7.4), and after dried, a microplate liquid scintillation cocktail was added and the radioactivity was measured with a microplate scintillation counter. Radioactivity in the presence of 10 μM (+)-butaclamol hydrochloride was assumed as nonspecific binding.
(§1) IC50 value was calculated from concentration-dependent reaction using a non-linear analysis program. Ki value was calculated from IC50 value using Cheng-Prussoff formula.

[1] = molecular target: Serotonin 5-HT2A receptor (Rattus norvegicus (Rat), UniProt P14842); assay: Serotonin 5-HT2A receptor binding assay ([3H]-Ketanserin, rat frontal cortex membrane); conditions: Ki from IC50 by Cheng-Prussoff formula
Serotonin 5-HT2A receptor, sequence (P14842 whole entry): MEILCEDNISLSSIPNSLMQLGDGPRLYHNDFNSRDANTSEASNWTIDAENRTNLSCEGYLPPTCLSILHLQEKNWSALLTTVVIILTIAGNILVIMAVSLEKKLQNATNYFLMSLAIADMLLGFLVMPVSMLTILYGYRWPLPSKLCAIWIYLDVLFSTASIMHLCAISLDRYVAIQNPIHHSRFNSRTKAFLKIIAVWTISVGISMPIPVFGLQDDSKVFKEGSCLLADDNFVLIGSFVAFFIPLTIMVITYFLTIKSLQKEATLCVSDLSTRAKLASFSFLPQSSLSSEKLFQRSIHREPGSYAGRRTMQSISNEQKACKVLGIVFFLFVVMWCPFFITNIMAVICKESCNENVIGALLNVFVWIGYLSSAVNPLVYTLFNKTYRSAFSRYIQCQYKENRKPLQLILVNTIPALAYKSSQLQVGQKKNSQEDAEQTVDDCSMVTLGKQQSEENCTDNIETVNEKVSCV
Description: 2) Serotonin 5-HT2A Receptor Binding Assay
The assay was performed according to the method by Leysen J E et al. (Leysen J E, Niemegeers C J E, Van Nueten J M and Laduron P M. [3H] Ketanserin (R 41 468), a selective 3H-ligand for serotonin 2 receptor binding sites. Mol. Pharmacol., 1982, 21: 301-314).
Wistar male rats were decapitated, the brain was retrieved immediately and frontal cortex was taken out. It was homogenized in 0.25 M sucrose of a volume 10 times of the weight of the tissue using a Teflon glass homogenizer, and centrifuged at 4° C., 1,000×g for 10 minutes. The obtained supernatant was transferred to another centrifuge tube and suspended in 0.25 M sucrose of a volume 5 times of the weight of the tissue and the precipitate was centrifuged in the above-described condition. The obtained supernatant was combined with the supernatant obtained above and adjusted to a volume 40 times of the weight of the tissue with 50 mM Tris-hydrochloric acid buffer (pH 7.4), and centrifuged at 4° C., 35,000×g for 10 minutes. The obtained precipitate was suspended again in the above-described buffer of a volume 40 times of the weight of the tissue and centrifuged in the above-described condition. The obtained precipitate was suspended in the above-described buffer of a volume 20 times of the weight of the tissue and preserved by freezing at −85° C. till it was used for binding assay as a membrane specimen.
The binding assay was performed using 40 μl of the membrane specimen, 20 μl of [^3H]-Ketanserin (final concentration 1 to 3 nM), 20 μl of a test drug and 50 mM Tris-hydrochloric acid buffer (pH 7.4) so that the total amount was 200 μl (final dimethylsulfoxide concentration 1%). The reaction was performed at 37° C. for 20 minutes and terminated by conducting suction filtration with a cell harvester on a glass fiber filter plate.
The filter plate made of glass fiber was washed with 50 mM Tris-hydrochloric acid buffer (pH 7.4), and after dried, a microplate liquid scintillation cocktail was added and the radioactivity was measured with a microplate scintillation counter. Radioactivity in the presence of 10 μM spiperone was assumed as nonspecific binding.
as §1

Serotonin (5-HT) uptake = Serotonin (5-HT) uptake (Rattus norvegicus (Rat), UniProt P31652); assay: Serotonin (5-HT) uptake inhibitory activity by rat brain synaptosome; type: biochemical; conditions: test compound 300 nM, rat frontal cortex synaptosome; read-out: Serotonin uptake inhibitory ratio (%) (300 nM)
Serotonin (5-HT) uptake, sequence (P31652 whole entry): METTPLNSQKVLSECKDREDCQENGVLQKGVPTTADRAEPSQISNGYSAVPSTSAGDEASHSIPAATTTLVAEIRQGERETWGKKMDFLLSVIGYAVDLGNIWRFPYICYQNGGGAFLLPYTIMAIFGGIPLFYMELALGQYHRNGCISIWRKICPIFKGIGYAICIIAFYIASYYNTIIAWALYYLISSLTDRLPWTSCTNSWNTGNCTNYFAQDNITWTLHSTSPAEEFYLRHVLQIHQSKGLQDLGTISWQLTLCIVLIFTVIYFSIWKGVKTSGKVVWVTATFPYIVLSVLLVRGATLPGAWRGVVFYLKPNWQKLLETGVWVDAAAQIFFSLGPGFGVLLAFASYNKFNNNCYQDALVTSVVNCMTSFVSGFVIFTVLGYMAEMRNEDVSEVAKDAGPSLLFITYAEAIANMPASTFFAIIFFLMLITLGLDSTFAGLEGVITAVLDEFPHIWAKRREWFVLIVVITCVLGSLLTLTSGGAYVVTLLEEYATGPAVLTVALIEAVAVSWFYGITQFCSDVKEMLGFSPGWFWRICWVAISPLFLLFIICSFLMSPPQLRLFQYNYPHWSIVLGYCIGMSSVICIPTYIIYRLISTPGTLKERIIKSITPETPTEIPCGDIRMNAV
Description: Measurement of Serotonin (5-HT) Uptake Inhibitory Activity of a Test Compound by Rat Brain Synaptosome
Wistar male rats were decapitated, the brain was retrieved and frontal cortex was dissected out, and it was homogenized in 0.32 M sucrose solution of a weight 20 times of the weight of the tissue using a Potter type homogenizer. The homogenate was centrifuged at 4° C., 1,000×g for 10 minutes, the obtained supernatant was further centrifuged at 4° C., 20,000×g for 20 minutes, and the pellet was suspended in an incubation buffer (20 mM Hepes buffer (pH 7.4) containing 10 mM glucose, 145 mM sodium chloride, 4.5 mM potassium Chloride, 1.2 mM magnesium chloride, 1.5 mM calcium chloride), which was used as crude synaptosome fraction.
5-HT uptake reaction was performed in a volume of 200 μl using a 96-well round bottom plate and pargyline (final concentration 10 μM) and sodium ascorbate (final concentration 0.2 mg/ml) were contained in the incubation buffer upon reaction and used.
Incubation buffer (total counting), non-labeled 5-HT (final concentration 10 μM, non-specific counting) and the diluted test compound (final concentration 300 nM) were added to each well. One-tenth quantity of the final volume of the synaptosome fraction was added and after preincubated at 37° C. for 10 minutes, tritium labeled 5-HT solution (final concentration 8 nM) was added and uptake reaction was started at 37° C. The uptake time was 10 minutes and the reaction was terminated by vacuum filtration through a 96-well fiber glass filter paper plate, and after the filter paper was washed with cold normal saline, it was dried enough and Microscint0 (Perkin-Elmer) was added to the filter and remaining radioactivity on the filter was measured.

Dopamine D2 receptor, sequence (P61169 whole entry): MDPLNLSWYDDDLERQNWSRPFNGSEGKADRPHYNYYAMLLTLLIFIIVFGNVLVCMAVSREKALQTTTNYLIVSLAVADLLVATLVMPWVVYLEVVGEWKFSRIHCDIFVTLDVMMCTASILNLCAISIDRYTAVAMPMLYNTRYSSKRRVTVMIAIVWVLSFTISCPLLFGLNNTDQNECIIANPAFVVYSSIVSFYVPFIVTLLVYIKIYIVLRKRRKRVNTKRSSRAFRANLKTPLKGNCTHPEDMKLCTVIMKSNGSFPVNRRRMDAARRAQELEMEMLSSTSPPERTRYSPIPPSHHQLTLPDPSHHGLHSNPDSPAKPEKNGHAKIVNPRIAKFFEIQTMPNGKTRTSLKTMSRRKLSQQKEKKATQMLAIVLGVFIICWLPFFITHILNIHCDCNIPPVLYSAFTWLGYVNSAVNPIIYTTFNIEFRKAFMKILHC

Row | Compound | Ki (Dopamine D2 receptor) [nM] | Ki [1] [nM] | inhibition at 0.3 µM (Serotonin (5-HT) uptake) [%] | Ki ([1]; hydrochloride) [nM]
1 | O=c1ccc2ccc(OCCCCN3CCN(c4cccc5sccc45)CC3)cc2[nH]1 [Example 1, 7-[4-(4-benzo[b]thiophen-4-yl-piperazin-1-yl)butoxy]-1H-quinolin-2-one] | 0.2 | 2.3 | 92.4 | 
2 | O=c1[nH]c2ccccc2cc1OCCN1CCN(c2cccc3sccc23)CC1 [Example 2, 3-[2-(4-benzo[b]thiophen-4-yl-piperazin-1-yl)ethoxy]-1H-quinolin-2-one] |  | 1.5 | 78.8 | 
3 | Cc1cc(=O)[nH]c2cc(OCCCN3CCN(c4cccc5sccc45)CC3)ccc12 [Example 3, 7-[3-(4-benzo[b]thiophen-4-yl-piperazin-1-yl)propoxy]-4-methyl-1H-quinolin-2-one] | 0.5 | 2.3 | 84.8 | 
4 | Cc1cc(=O)[nH]c2cc(OCCCCN3CCN(c4cccc5sccc45)CC3)ccc12 [Example 4, 7-[4-(4-benzo[b]thiophen-4-yl-piperazin-1-yl)butoxy]-4-methyl-1H-quinolin-2-one] | 0.5 | 4.9 | 91 | 
5 | Cc1cc2ccc(OCCCCN3CCN(c4cccc5sccc45)CC3)cc2[nH]c1=O [Example 6, 7-[4-(4-benzo[b]thiophen-4-yl-piperazin-1-yl)butoxy]-3-methyl-1H-quinolin-2-one] | 0.8 |  | 91.3 | 
6 | O=C1CCc2ccc(OCCCCN3CCN(c4cccc5sccc45)CC3)cc2N1 [Example 11, 7-[4-(4-benzo[b]thiophen-4-yl-piperazin-1-yl)butoxy]-3,4-dihydro-1H-quinolin-2-one] |  | 5.7 |  | 
7 | O=C1CCc2ccc(OCCCCN3CCN(c4cccc5sccc45)CC3)cc2N1 [Example 12, 7-[4-(4-benzo[b]thiophen-4-yl-piperazin-1-yl)butoxy]-3,4-dihydro-1H-quinolin-2-one hydrochloride] |  |  |  | 2.1
8 | O=C1CCc2ccc(OC/C=C\CN3CCN(c4cccc5sccc45)CC3)cc2N1 [Example 13, 7-[4-(4-benzo[b]thiophen-4-yl-piperazin-1-yl)-(Z)-2-butenyloxy]-3,4-dihydro-1H-quinolin-2-one] | 2.4 |  | 77 | 
9 | O=C1CCc2ccccc2N1CCCCCN1CCN(c2cccc3sccc23)CC1 [Example 22, 1-[5-(4-benzo[b]thiophen-4-yl-piperazin-1-yl)pentyl]-3,4-dihydro-1H-quinolin-2-one hydrochloride] | 4 |  |  | 
10 | O=C1NCCc2cc(OCCCN3CCN(c4cccc5sccc45)CC3)ccc21 [Example 25, 6-[3-(4-benzo[b]thiophen-4-yl-piperazin-1-yl)propoxy]-3,4-dihydro-2H-isoquinolin-1-one] |  | 4.6 | 91.9 | 
11 | O=C1NCCc2ccc(OCCCN3CCN(c4cccc5sccc45)CC3)cc21 [Example 28, 7-[3-(4-benzo[b]thiophen-4-yl-piperazin-1-yl)propoxy]-3,4-dihydro-2H-isoquinolin-1-one] | 1.2 |  |  | 
12 | CCN1CCc2ccc(OCCCN3CCN(c4cccc5sccc45)CC3)cc2C1=O [Example 31, 7-[3-(4-benzo[b]thiophen-4-yl-piperazin-1-yl)propoxy]-2-ethyl-3,4-dihydro-2H-isoquinolin-1-one dihydrochloride] | 1.4 |  |  | 
13 | CN1CCc2ccc(OCCCCN3CCN(c4cccc5sccc45)CC3)cc2C1=O [Example 32, 7-[4-(4-benzo[b]thiophen-4-yl-piperazin-1-yl)butoxy]-2-methyl-3,4-dihydro-2H-isoquinolin-1-one hydrochloride] | 1.5 |  |  | 
14 | O=c1[nH]ccc2ccc(OCCCN3CCN(c4cccc5sccc45)CC3)cc12 [Example 35, 7-[3-(4-benzo[b]thiophen-4-yl-piperazin-1-yl)propoxy]-2H-isoquinolin-1-one] | 1.6 |  |  | 
15 | Cn1ccc2ccc(OCCCN3CCN(c4cccc5sccc45)CC3)cc2c1=O [Example 36, 7-[3-(4-benzo[b]thiophen-4-yl-piperazin-1-yl)propoxy]-2-methyl-2H-isoquinolin-1-one hydrochloride] |  | 2.1 |  | 
16 | COc1ccc2ccn(CCCCN3CCN(c4cccc5sccc45)CC3)c(=O)c2c1 [Example 38, 2-[4-(4-benzo[b]thiophen-4-yl-piperazin-1-yl)butyl]-7-methoxy-2H-isoquinolin-1-one hydrochloride] |  | 7.3 |  | 
17 | O=c1c2cc(O)ccc2ccn1CCCCN1CCN(c2cccc3sccc23)CC1 [Example 39, 2-[4-(4-benzo[b]thiophen-4-yl-piperazin-1-yl)butyl]-7-hydroxy-2H-isoquinolin-1-one hydrobromide] | 1.2 |  |  | 
18 | O=C1CCc2cc(OCCCN3CCN(c4cccc5sccc45)CC3)cc(F)c2N1 [Example 116] | 4.5 | 4.2 |  | 
19 | Cc1cccc2cc(OCCCN3CCN(c4cccc5sccc45)CC3)c(=O)[nH]c12 [Example 117] | 4.7 |  |  | 
20 | O=c1ccc2cc(OCCCN3CCN(c4cccc5sccc45)CC3)cc(F)c2[nH]1 [Example 118] | 3.5 | 3.4 |  | 
21 | O=C1CCc2c(cccc2OCCCN2CCN(c3cccc4sccc34)CC2)N1 [Example 122] | 3.3 | 2.9 |  | 
22 | O=C1CCc2cc(CO)c(OCCCN3CCN(c4cccc5sccc45)CC3)cc2N1 [Example 139] | 0.2 |  |  | 
23 | CC(=O)Nc1ccc(OCCCN2CCN(c3cccc4sccc34)CC2)c2c1NC(=O)CC2 [Example 155] | 2.3 | 3 |  | 
24 | O=c1ccc2cc(OCCCCN3CCN(c4cccc5sccc45)CC3)cc(F)c2[nH]1 [Example 184] | 2.6 | 4.3 |  | 
25 | Cc1cc(=O)[nH]c2ccc(OCCCCN3CCN(c4cccc5sccc45)CC3)cc12 [Example 185] | 2.7 | 5 |  | 
26 | O=C1CCc2cccc(OCCCCN3CCN(c4cccc5sccc45)CC3)c2N1 [Example 186] | 2.3 | 8.8 |  | 
27 | O=c1ccc2cccc(OCCCCN3CCN(c4cccc5sccc45)CC3)c2[nH]1 [Example 188] | 1.6 | 6.3 |  | 
28 | O=C1CCc2c(O)ccc(OCCCN3CCN(c4cccc5sccc45)CC3)c2N1 [Example 190] | 0.8 |  |  | 
